Patent US8101760B2, “Glucocorticoid receptor modulator and methods of use” (Eli Lilly and Company, priority 2007, dated 2012)

Experiments:
serum osteocalcin = test: Serum osteocalcin assay; assay type: in vivo, mouse; conditions: mice, oral, seven days; 1 mg/kg/day Compound (I) vs 10 mg/kg/day prednisolone; mean of 6
Excerpt: Bone loss/osteoporosis and the resulting increased risk of fracture is a common and significant adverse effect that results from glucocorticoid therapy. Glucocorticoid induced osteoporosis is believed to result, at least in part, from an inhibition of bone formation. The measurement of serum osteocalcin, a biological marker of bone synthesis, is a recognized tool for assessing the adverse effects of glucocorticoid therapy on bone. (see Pearce et al., J. Clin. Endocrino. Metab. 83: 801-806, (1998)).
To assess the effects of Compound (I) on bone formation, Compound (I) is formulated in a vehicle comprising 5% carboxymethyl cellulose and 0.25% Tween 80 and administered orally via gavage to sixteen week old male Swiss-Web mice (Harlan Industries, Indianapolis, Ind.) for seven days. For comparison, prednisolone is administered orally in the same vehicle. Serum is collected 24 hours after the last dose and osteocalcin levels are determined using a competitive radioimmunoassay (RIA) kit (Biomedical Technologies, Inc., Stoughton, Mass.) modified to a 96 well format. […] The filters are punched and the radioactivity quantitated on a gamma counter (Cobra II, Packard Instruments, Meriden, Conn.). Radioactivity detected on the filters from test samples is inversely proportional to serum osteocalcin concentration. […]

[1] = tested on: IL-1β-stimulated IL-6 production in human skin fibroblast CCD-39SK cells; test: GR-mediated transrepression: IL-1β-stimulated IL-6 production in CCD-39SK cells; assay type: cell-based; conditions: mean of 22 determinations, read-out: EC50, inhibition of IL-6 expression
Description: Glucocorticoid Receptor-Mediated Transrepression Assays: 1. IL-1β-Stimulated IL-6 Production in Human Skin Fibroblast CCD-39SK Cells:
Briefly, human skin fibroblast CCD-39SK cells (20,000 cells/well), obtained from the American Type Culture Collection (ATCC), Manassas, Va. U.S.A. (ATCC Catalog #CRL-1501) are seeded in 96-well plates in SF-GM (MEM) medium (ATCC Catalog #30-20030), supplemented with 10% fetal bovine serum (FBS), 100 U/mL penicillin, 100 μg/mL streptomycin and 2 mmol/L L-glutamine. Cells are maintained in a humidified chamber with 5% CO2 at 37° C. Test compounds are added to the wells in various concentrations ranging from a final concentration of about 4.65 pM to 4.64 μM. 0.1 μM of dexamethasone is used as a positive control. 1-hour post treatment with test compound, IL-1β is added at final concentration of 1 ng/mL and the reaction mixture is incubated overnight. IL-6 concentrations are measured with an ELISA Kit (R&D Systems, Inc., Minneapolis, Minn., U.S.A.) using standard techniques. Briefly, take 10 μL of supernatant from each well and add 90 μL of assay buffer. IL-6 concentrations are quantified by reading absorbance at 450 nm. A standard curve of absorbance versus IL-6 concentration is constructed and used to determine the concentration of IL-6 in experimental samples.

reduction in serum osteocalcin levels compared with prednisolone (serum osteocalcin): less reduction
Structure (SMILES): CC/C(=C1\c2ccc(Cl)cc2OCc2ncccc21)c1cccc(NS(C)(=O)=O)c1 [Compound (I), (E)-N-{3-[1-(8-Chloro-11H-10-oxa-1-aza-dibenzo[a,d]cyclohepten-5-ylidene)-propyl]-phenyl}-methanesulfonamide]
EC50 [1]: ~4.8 nM
